Experimental data reported in patent EP0603240B1, “SAFENING HERBICIDAL PYRAZOLYLSULFONYLUREAS” (priority 1991, dated 1993).

Key:
[1] = tested on: corn; assay: Example 2, Procedure II: dichloroacetamide antidotes against Herbicide No. 1; type: in vivo
Procedure: (§1) Containers were filled and compacted with a fumigated silt loam top soil to a depth of about 1.3 cm from the top of the container. A first container was designated as an untreated control, a second container was designated as a herbicide control, and a third container was designated as a herbicide + antidote test container. Each of the containers was seeded with a crop species. A measured amount of herbicide dispersed or dissolved in acetone was applied to a measured quantity of soil. To this same quantity of soil treated with herbicide, there was added a measured amount of antidote dispersed or dissolved in acetone. The quantity of soil treated with the herbicide and antidote was thoroughly mixed to incorporate the herbicide and antidote in the soil uniformly. The seed bed in the third container of soil was covered with the soil treated with the herbicide and antidote and the container was leveled. For each test series, the seed beds of the first and second containers were likewise covered by soil layers. the cover layer of the first container was not treated with herbicide or antidote.
(§2) The containers were then placed on a bench in a greenhouse and sub-irrigated as required for the duration of the test. […] Plant response is measured in terms of percent injury. Antidote efficacy is indicated as the difference in plant injury by the herbicide(s) without the antidote and with the antidote.
(§3) This procedure is the same as Procedure I, but modified in the manner that after incorporation of the chemicals (herbicide and antidote) the containers with the covered seedbed were treated with an initial overhead irrigation equivalent to 0.6 cm rainfall, then subsequently sub-irrigated as required on greenhouse benches.
In this example, a plurality of dichloroacetamide antidotes were tested for their safening efficacy against Herbicide No. 1 in corn, using Procedure II. In this test the weed was velvetleaf; barnyardgrass was not present in this test.

[2] = tested on: corn; assay: Example 25, greenhouse preemergence test: Antidote Nos. 1 and 2 against Herbicide Nos. 1-3; type: in vivo, Corn (Pioneer 3424 variety); conditions: Zea mays, pre-emergence, Preemergence, no antidote
Method in brief: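 Greenhouse preemergence application; herbicides as wettable powders, dichlormid as emulsifiable concentrate, naphthalic anhydride as conventional seed coating on corn before planting. Rates in g active ingredient/ha; naphthalic anhydride amount not quantified. Corn injury scored as percent growth inhibition.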

[3] = tested on: corn; assay: Example 12, Procedure II: Herbicide No. 1 + acetochlor (No. 6) with thirteen antidotes; type: in vivo
Method in brief: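 Herbicide and antidote in acetone were mixed into silt loam used to cover the corn seed bed, alongside untreated and herbicide-only controls. After incorporation, an overhead irrigation equal to 0.6 cm rainfall was given, then sub-irrigation in a greenhouse. Injury was scored as percent; safening is the injury difference without versus with antidote.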

[4] = tested on: corn; assay: Example 13, Procedure II: Herbicide No. 1 + acetochlor (No. 6) with dichloroacetamide antidotes; type: in vivo
Method in brief: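 Corn seeded in silt loam, covered with soil into which herbicide No. 1 plus acetochlor and dichloroacetamide antidote (acetone) were incorporated, velvetleaf present. Initial overhead irrigation equivalent to 0.6 cm rainfall, then greenhouse sub-irrigation. Percent injury scored; safening taken as injury difference without versus with antidote.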

[5] = tested on: corn; assay: Example 10, Procedure II: Herbicide No. 1 + propachlor (No. 5) with antidotes; type: in vivo
Procedure: as §1, §2, §3
In this test, the safening effect of various antidotes on the herbicidal combination of Herbicide No. 1 and another α-chloroacetanilide co-herbicide, propachlor, (Herbicide No. 5) was investigated. Propachlor is the active ingredient in the commercial herbicide RAMROD®. Procedure II was also used in this test as in the preceding example.

[6] = tested on: corn; assay: Example 4, Procedure I: Antidote Nos. 15 and 16 against Herbicide No. 1; type: in vivo
Procedure: as §1, §2
This example describes tests with Antidote Nos. 15 and 16 to safen Herbicide No. 1 according to Procedure I using corn and the weeds barnyardgrass and velvetleaf as the test plants.

[7] = tested on: corn; assay: Example 15, Procedure II: Herbicide No. 1 + butylate (No. 10) with antidotes; type: in vivo
Procedure: as §1, §2, §3
This example describes experiments designed to investigate the antidotal efficacy of a plurality of antidotes against the herbicidal action of a combination of Herbicide No. 1 and butylate in corn and the prevalent weeds barnyardgrass and velvetleaf. The antidotes used in these experiments were Nos. 1-10, 12, 13 and 15.
The test procedure used in these experiments was that of Procedure II described above. The antidotes were applied to a soil cover layer by pipet after spraying the herbicides onto the soil, followed by incorporation and overhead irrigation.

[8] = tested on: barnyardgrass (Echinochloa crusgalli); assay: Example 9, Procedure II: Herbicide No. 1 + pretilachlor (No. 13) with antidotes; type: in vivo
Procedure: as §1, §2, §3
(§4) In the series of greenhouse tests described below, for routine screening purposes the herbicide/antidote compositions were tested in crop/weed combinations involving corn as the crop and either or both of the weeds barnyardgrass (Echinochloa crusgalli), a monocotyledonous weed, and velvetleaf (Abutilon theophrasti), a dicotyledonous weed. In the tables below, these weeds are indicated by the symbols "BYG" and "VL", respectively.
(§5) In this example the safening effect on a composition comprising Herbicide No. 1 and another leading rice herbicide, i.e., Herbicide No. 13, was investigated using the same antidotes and test procedure described in the preceding example. Herbicide No. 13 is pretilachlor, active ingredient used in the commercial rice herbicides RIFIT®, SOFIT® and SOFIT® SUPER.

[9] = tested on: velvetleaf (Abutilon theophrasti); assay: as above; type: in vivo
Procedure: as §1, §2, §3, §4, §5

[10] = Herbicide No.1 0.14 kg/ha alone, no antidote
[11] = Herbicide No.1 0.56 kg/ha alone, no antidote
[12] = Herbicide No.1 0.14 kg/ha + Herbicide No.13 2.24 kg/ha, antidote rate 2.24 kg/ha
[13] = Herbicide No.1 0.14 kg/ha + Herbicide No.13 2.24 kg/ha, antidote rate 8.96 kg/ha
[14] = Herbicide No.1 0.56 kg/ha + Herbicide No.13 2.24 kg/ha, antidote rate 2.24 kg/ha
[15] = Herbicide No.1 0.56 kg/ha + Herbicide No.13 2.24 kg/ha, antidote rate 8.96 kg/ha

Q: With `COC(=O)c1c(Cl)nn(C)c1S(=O)(=O)NC(=O)Nc1nc(OC)cc(OC)n1` [Herbicide No. 1] as the molecule, how does the “% Injury Corn” value ([1]; Herb. No. 1 0.14 kg/ha, no antidote) read?
A: 10%

Q: And the inhibition at 0.25 g/ha ([2]; herbicide alone 0.25 G/ha, read-out: % Inhibition Corn)?
A: 22.3%

Q: What about the inhibition at 0.74 g/ha ([2]; herbicide alone 0.74 G/ha) of the same molecule?
A: 32.3%

Q: What about the inhibition at 2.5 g/ha ([2]; herbicide alone 2.5 G/ha) of the same molecule?
A: 49.9%

Q: What about the combined corn injury ([3]; Herbicide No. 1 0.56 kg/ha + Herbicide No. 6 2.24 kg/ha, without an antidote) of the same molecule?
A: 45%

Q: What about the injury to corn ([3]; Herbicide No. 1 0.56 kg/ha, without an antidote) of the same molecule?
A: 20%

Q: And the “% Injury Corn” value [3, 10]?
A: 15%

Q: And the “% Injury Corn” value [3, 11]?
A: 20%

Q: And the “% Injury Corn” value [4, 10]?
A: 10%

Q: What about the “% Injury Corn” value [4, 11] of the same molecule?
A: 55%

Q: And the “% Injury Corn” value ([4]; Herbicide No.1 2.24 kg/ha alone, no antidote)?
A: 80%

Q: What about the “% Injury Corn” value [5, 10] of the same molecule?
A: 20%

Q: What about the “% Injury Corn” value [5, 11] of the same molecule?
A: 30%

Q: What about the “% Injury Corn” value ([6]; Herb. No. 1 4.48 kg/ha, no antidote, average of two replicates) of the same molecule?
A: 85%

Q: What about the “% Injury Corn” value ([6]; Herb. No. 1 6.72 kg/ha, no antidote, average of two replicates) of the same molecule?
A: 90%

Q: And the “% Injury Corn” value [7, 11]?
A: 20%

Q: And the “% Injury Corn” value ([7]; Herbicide No.1 1.12 kg/ha alone, no antidote)?
A: 20%

Q: With `CC1(C)OC(c2ccco2)CN1C(=O)C(Cl)Cl` (centres unmarked) [compound 15] as the molecule, how does the “% Injury Corn” value ([1]; Herb. No. 1 0.14 kg/ha + antidote 0.56 kg/ha) read?
A: 5%

Q: And the “% Injury Corn” value ([3]; Herbicide No.1 0.14 kg/ha + Herbicide No.6 2.24 kg/ha, antidote rate 2.24 kg/ha)?
A: 15%

Q: What about the “% Injury Corn” value ([3]; Herbicide No.1 0.14 kg/ha + Herbicide No.6 2.24 kg/ha, antidote rate 8.96 kg/ha) of the same molecule?
A: 10%

Q: And the “% Injury Corn” value ([3]; Herbicide No.1 0.56 kg/ha + Herbicide No.6 2.24 kg/ha, antidote rate 2.24 kg/ha)?
A: 20%

Q: And the “% Injury Corn” value ([3]; Herbicide No.1 0.56 kg/ha + Herbicide No.6 2.24 kg/ha, antidote rate 8.96 kg/ha)?
A: 5%

Q: And the “% Injury Corn” value ([4]; Herbicide No.1 0.56 kg/ha + Herbicide No.6 4.48 kg/ha, antidote rate 0.56 kg/ha)?
A: 5%

Q: And the “% Injury Corn” value ([4]; Herbicide No.1 0.56 kg/ha + Herbicide No.6 4.48 kg/ha, antidote rate 2.24 kg/ha)?
A: 15%

Q: What about the “% Injury Corn” value ([4]; Herbicide No.6 4.48 kg/ha, no Herbicide No.1, antidote rate 0.56 kg/ha) of the same molecule?
A: 5%

Q: And the “% Injury Corn” value ([4]; Herbicide No.6 4.48 kg/ha, no Herbicide No.1, antidote rate 2.24 kg/ha)?
A: 15%

Q: And the “% Injury BYG” value [8, 12]?
A: 100%

Q: And the “% Injury BYG” value [8, 13]?
A: 100%

Q: And the “% Injury BYG” value [8, 14]?
A: 99%

Q: And the “% Injury BYG” value [8, 15]?
A: 100%

Q: And the “% Injury VL” value [9, 12]?
A: 60%

Q: And the “% Injury VL” value [9, 13]?
A: 90%

Q: What about the “% Injury VL” value [9, 14] of the same molecule?
A: 85%

Q: What about the “% Injury VL” value [9, 15] of the same molecule?
A: 75%

Q: What about the “% Injury Corn” value ([5]; Herbicide No.1 0.14 kg/ha + Herbicide No.5 4.48 kg/ha, antidote rate 2.24 kg/ha) of the same molecule?
A: 0%

Q: And the “% Injury Corn” value ([5]; Herbicide No.1 0.14 kg/ha + Herbicide No.5 4.48 kg/ha, antidote rate 8.96 kg/ha)?
A: 0%

Q: What about the “% Injury Corn” value ([5]; Herbicide No.1 0.56 kg/ha + Herbicide No.5 4.48 kg/ha, antidote rate 2.24 kg/ha) of the same molecule?
A: 10%

Q: And the “% Injury Corn” value ([5]; Herbicide No.1 0.56 kg/ha + Herbicide No.5 4.48 kg/ha, antidote rate 8.96 kg/ha)?
A: 10%

Q: What about the “% Injury Corn” value ([6]; Herb. No. 1 6.72 kg/ha + antidote 0.56 kg/ha) of the same molecule?
A: 35%

Q: What about the “% Injury Corn” value ([6]; Herb. No. 1 6.72 kg/ha + antidote 2.24 kg/ha) of the same molecule?
A: 50%

Q: And the “% Injury Corn” value ([7]; Herbicide No.1 0.56 kg/ha + Herbicide No.10 6.72 kg/ha, antidote rate 2.24 kg/ha)?
A: 20%

Q: And the “% Injury Corn” value ([7]; Herbicide No.1 0.56 kg/ha + Herbicide No.10 6.72 kg/ha, antidote rate 8.96 kg/ha)?
A: 10%

Q: And the “% Injury Corn” value ([7]; Herbicide No.1 1.12 kg/ha + Herbicide No.10 6.72 kg/ha, antidote rate 2.24 kg/ha)?
A: 15%

Q: What about the “% Injury Corn” value ([7]; Herbicide No.1 1.12 kg/ha + Herbicide No.10 6.72 kg/ha, antidote rate 8.96 kg/ha) of the same molecule?
A: 15%
